Assay results taken from patent US6630612B2, “5-HT3 receptor assay using transgenic mammal” (University of New Mexico, priority 1997, dated 2003).
Several values for one entry are separate records, joined by “and”; a condition that tells them apart may be missing. Equal values may be shown once.

Experiments:
5-HT3 receptor [1] = target: T1, 5-HT3 receptor (Mus musculus, UniProt P23979); assay: Homogenate saturation binding with 3H-GR65630 in cortical membranes of transgenic and B6SJL/F1 control mice
T1 construct: cortices and cerebelli were removed and homogenized by hand in ice cold Hepes buffer; from tissue; host or cells: Washed membranes from cortex, cerebellum, liver, lung, heart, spleen, kidney, small intestine, testis and skeletal muscle of transgenic and B6SJL/F1 control mice
T1 sequence (P23979 24-489): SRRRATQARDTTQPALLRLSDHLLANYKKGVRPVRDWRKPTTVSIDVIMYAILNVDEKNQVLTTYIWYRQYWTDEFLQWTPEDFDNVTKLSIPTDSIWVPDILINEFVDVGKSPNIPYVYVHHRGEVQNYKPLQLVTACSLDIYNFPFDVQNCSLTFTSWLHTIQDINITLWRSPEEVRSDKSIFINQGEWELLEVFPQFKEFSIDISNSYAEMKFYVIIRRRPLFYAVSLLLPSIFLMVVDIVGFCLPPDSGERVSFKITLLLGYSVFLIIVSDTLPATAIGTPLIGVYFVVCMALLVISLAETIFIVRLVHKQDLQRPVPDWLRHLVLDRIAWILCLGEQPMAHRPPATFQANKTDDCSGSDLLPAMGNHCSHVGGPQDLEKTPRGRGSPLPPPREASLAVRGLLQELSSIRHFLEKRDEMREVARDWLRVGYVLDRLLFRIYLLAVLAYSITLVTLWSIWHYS
Method: (§1) For homogenate binding studies, cortices and cerebelli were removed and homogenized by hand in ice cold Hepes buffer (50 mM, pH 7.5) and centrifuged at 500 g for 5 minutes at 4° C. Liver, lung, heart, spleen, kidney, small intestines, testes, and skeletal muscle (from hind limb) were homogenized with an Omni tissue chopper. Membranes were pelleted by centrifugation at 20,000 g for 20 minutes at 4° C. and the pellets washed twice before suspension to 3 mg/ml in a buffer containing 145 mM NaCl, 5 mM KCl, 1, mM MgCl2, 1 mM CaCl2, 10 mM glucose, and 10 mM TRIS, pH 7.5. Saturation curves were carried out with 0.0125-25 nM ^3H-GR65630 at 37° C. for 30 minutes with 300 μg total protein. Incubation was terminated by dilution with ×10 volume (5 ml) of ice-cold buffer followed by rapid filtration onto Whatman GF/B filters. Filters were washed twice with 5 ml ice-cold buffer and counted by scintillation counting in EcoLite (ICN) scintillation cocktail. Non-specific binding (NSB) was determined with 0.125-256 μM tropisetron. Displacement binding was carried out the same as saturation binding except with 1 nM ^3H-GR65630 and NSB defined with 10 μM tropisetron. Protein concentrations were determined by Folin phenol reagent (Lowry et al., J. Biol. Chem. 193: 256-275, 1951).

5-HT3 receptor [2] = assay: as above; design: species or system mouse; conditions: cortical membranes, B6SJL/F1 control mice
Method: as §1

5-HT3 receptor [3] = target: T1, 5-HT3 receptor; assay: Specific binding with 3H-GR65630 in membranes from various tissues of transgenic and B6SJL/F1 control mice; conditions: Cortex membranes, transgenic mice
Method: as §1

5-HT3 receptor [4] = assay: as above; design: species or system mouse
Method: as §1

[5] = cortical membranes, 5-HT3 transgenic mice

Cc1[nH]cnc1CCC(=O)c1cn(C)c2ccccc12 [^3H-GR65630]
Bmax (5-HT3 receptor [1]; [5]): 2155 fmol/mg protein and 2155±129 fmol/mg protein | Hill no. (Hill plot slope) (5-HT3 receptor [1]; [5]): 1.0 | Kd (5-HT3 receptor [1]; [5]): 1.7 nM | Bmax (5-HT3 receptor [1]; transgenic mice membranes): 2.5 pmol/mg protein | Bmax (5-HT3 receptor [2]): 21 fmol/mg protein and 21±10 fmol/mg protein | Kd (5-HT3 receptor [2]; n=3 (FIG. 2 legend, unit inferred)): 1.6 ± 2.3 nM | Specific binding (means ± SEM) (5-HT3 receptor [3]): 969.6 ± 190.5 fmol/mg protein | Specific binding (means ± SEM) (5-HT3 receptor [4]; Cortex membranes, B6SJL/F1 control mice): 7.2 ± 2.9 fmol/mg protein | Specific binding (means ± SEM) (5-HT3 receptor [4]; Heart membranes, B6SJL/F1 control mice): 0.25 ± 5.4 fmol/mg protein | Specific binding (means ± SEM) (5-HT3 receptor [4]; Heart membranes, transgenic mice): 3.9 ± 1.8 fmol/mg protein | Specific binding (means ± SEM) (5-HT3 receptor [4]; Kidney membranes, B6SJL/F1 control mice): 3.9 ± 3.1 fmol/mg protein | Specific binding (means ± SEM) (5-HT3 receptor [4]; Kidney membranes, transgenic mice): 16.9 ± 8.0 fmol/mg protein | Specific binding (means ± SEM) (5-HT3 receptor [4]; Lung membranes, transgenic mice): 2.7 ± 4.1 fmol/mg protein | Specific binding (means ± SEM) (5-HT3 receptor [4]; Skeletal muscle membranes, B6SJL/F1 control mice): 2.7 ± 0.4 fmol/mg protein | Specific binding (means ± SEM) (5-HT3 receptor [4]; Skeletal muscle membranes, transgenic mice): 8.0 ± 2.7 fmol/mg protein | Specific binding (means ± SEM) (5-HT3 receptor [4]; Small intestines membranes, B6SJL/F1 control mice): 26.6 ± 11.0 fmol/mg protein | Specific binding (means ± SEM) (5-HT3 receptor [4]; Small intestines membranes, transgenic mice): 26.0 ± 7.7 fmol/mg protein | Specific binding (means ± SEM) (5-HT3 receptor [4]; Spleen membranes, B6SJL/F1 control mice): 1.7 ± 3.9 fmol/mg protein | Specific binding (means ± SEM) (5-HT3 receptor [4]; Spleen membranes, transgenic mice): 8.2 ± 7.2 fmol/mg protein
